Assay results: patent publication US20220088144A1, “SGLT-2 INHIBITORS OR IL-1R ANTAGONISTS FOR REDUCTION OF HYPOGLYCAEMIA AFTER BARIATRIC SURGERY” (UNIVERSITÄTSSPITAL BASEL, priority 2019, published 2022)

How the values were obtained:
[1] = test system: patients after bariatric surgery with post-prandial hypoglycaemia; test: Follow up: off-label therapy with empagliflozin after the study; type: in vivo, human; conditions: six patients
From the text: Two trial participants were continued to be treated, and four more patients were initiated on off-label therapy with empagliflozin after completion of the study.

[2] = cited from earlier work
[3] = cited from earlier work; remark: listed apart in the source
[4] = subcutaneous administration; cited from earlier work

| Compound | efficacy and tolerability more than half a year after initiating off-label therapy [1] | frequency of hypoglycemic episodes, off-label therapy ([1]; empagliflozin after completion of the study) | mean Plasma-AUC in the steady state [2] [µM·h] | reduction of WBC/ANC ([3]; share of patients) [%] | mild and transient local injection reactions ([3]; share of subjects treated) | time of maximum plasma concentration [4] [h] |
| --- | --- | --- | --- | --- | --- | --- |
| OC[C@H]1O[C@@H](c2ccc(Cl)c(Cc3ccc(O[C@H]4CCOC4)cc3)c2)[C@H](O)[C@@H](O)[C@@H]1O [empagliflozin] | still effective and well tolerated by all patients | lower frequency of hypoglycemic episodes in each of the six patients | 1.87 | – | – | – |
| anakinra: CAS NO 143090-92-0; recombinant, non-glycosylated form of the human interleukin-1 receptor antagonist (IL-1 Ra), 153 amino acids | – | – | – | 2.4 | 20-50% | 4 |
